From publication PMC10082216 (Nature Communications, 2023)
Where “and” joins values, the source holds several entries; their conditions need not be identical. Equal values may be shown once. Entries after “also recorded” stand apart in the source; their conditions may differ.

What was measured:
[1] = tested on: stage V gametocytes of P. falciparum (3D7 pULG8-GFP strain); assay: Post-screening validation with 96-well plate microsphiltration (Paris); format: cell-based, Plasmodium falciparum; conditions: for confirmation of stiffening activity upon post-screening: DRA, 3D7, Paris laboratory; for retention 24 h after drug washout: 24 h exposure, remeasured additional 24 h after washout; for Normalized retention rate: gametocytes exposed 24 h
Method: Plasmodium falciparum NF54 strain parasites (used for screening campaign) were cultured at 4% hematocrit in RBCs from informed blood donors (blood group A) as previously described. Parasites were taken from the -80 °C freezer, then rapidly melt for 1 minute in a 37 °C water bath. A saline solution was gently added to avoid the lysis. Firstly, NaCl dissolved at 12% in distilled water (1/5 of the volume measured in the cryovial) and then NaCl dissolved at 1.6% (9 times the cryovial’s volume). After that, fresh RBCs were added to allow parasites re-growth. Infected RBCs were kept in RPMI medium (Sigma-Aldrich, cat. no. R4130), supplemented with 10% of decomplemented human serum, hypoxanthine 50 mg/l (Sigma-Aldrich, cat. no. H9636). Biobank of Castilla y Leon and Centro de Transfusiones de Madrid as providers of human red blood cell concentrates. The production of gametocytes was induced from a 0.5% ring-stage parasitemia (day 0). Medium was changed daily to induce gametocytes differentiation, as previously described. At day 17, gametocytes were concentrated using a density gradient medium (NycoPrep 1.077, Progen cat. no. 1114550)[27]. Parasitemia was adjusted by FACS (SYBR-Green and MitoTracker double staining, 3–5% targeted). Hematocrit was adjusted to 0.5% by adding fresh RBCs and controlled by manual counting in a Neubauer chamber (Celeromics, cat. no. 717810). Finally, the gametocyte suspension was poured (45 μL/well) into the compound-containing 384-well microplate, then incubated 24 hours both for the screening campaign and the dose-response analysis. Both asexual and sexual stages were cultivated in RPMI 1640 supplemented with 25 mM HEPES, 50 mg/L hypoxanthine, 50 μg/mL gentami-cin, 10% pooled heat-inactivated human serum (A^+). Each batch of serum was obtained by pooling 10 serum bags from different donors. Serum was kept at −20 °C and thawed in a warmed water bath before use. A new serum batch was prepared when the previous was completed. For dose-response analysis and microfluidics, both the 3D7-pULG8-GFP[67] and the NF54 strain (BEI Resources, cat. no. MRA-1000) were tested. The 3D7 strain was cultivated as described above with the addition of 0.2% NaHCO3 and 2.5 nM of WR99210 for both asexual and sexual stages.
Both fixed-dose and dose-response analyses were performed according to a second protocol (Paris laboratory) to validate the selected hits from primary screening. Briefly, the gametocyte suspension was loaded into a 96-well empty plate (200 µL/well). For each dose-response, first, well volume was doubled and compound was added to obtain 10 µM final concentration. For the dose-response analysis, the gametocyte suspension was then manually serially diluted 1/2 for 12 points, obtaining 5 nM as the lower concentration. The same operation was done with DMSO to have a negative control. After 24 hours of incubation at 37 °C, gametocyte suspensions were loaded into a 96-well filtration plate[28] and microsphiltration was manually performed at 37 °C. Up and downstream samples were incubated for 30 min with Hoechst 33342 nuclear staining (1/1000 diluted in PBS, Thermo Fischer cat. no. H3570), washed, resuspended in 200 µL of PBS and then loaded into an empty 96-well plate before FACSCanto (BD Biosciences, Franklin Lakes, New Jersey, USA) quantification. Data from cytofluorimetry were analyzed with FlowJo V12. As per previously described experiences with this technique, to avoid the risk of microbead layers saturation, a microsphiltration experiment was repeated when the upstream gametocytemia exceeded 10%[25],[69].

[2] = Hit scoring on safety in human subjects and pharmacokinetics; conditions: for Score (PK): peak plasma concentration vs IC50
From the text: Hits from the ReFrame library were further selected based on safety, preferably oral administration (high score if oral), and potential availability for widespread use.

Row | Compound | confirmation of stiffening activity upon post-screening ([1]; listed as L-THP) | Score (safety) [2] | Score (PK) [2] | retention 24 h after drug washout [1] | confirmation of stiffening activity upon post-screening [1] | Normalized retention rate [1] | Retention rates (single wells, Figure 4b) ([1]; gametocytes exposed to drugs 24 h) | IC50 ([1]; Plasmodium falciparum, 3D7, 96-well, five independent experiments, read-out: stiffening IC50, median (±SD)) | persistence of stiffening activity after drug washout ([1]; mature gametocytes)
1 | COc1cc2c(cc1OC)[C@@H]1Cc3ccc(OC)c(OC)c3CN1CC2 [(S)-(-)-Tetrahydropalmatine] | not fully confirmed; also recorded: did not confirm | 3 | 6 (Peak plasma concentration higher than 3 IC50 (Score = 6)) | – | – | – | – | – | –
2 | C[C@H]1Cc2c([nH]c3cc(Cl)c(F)cc23)[C@@]2(N1)C(=O)Nc1ccc(Cl)cc12 [NITD609, cipargamin] | – | 3 | 6 (Peak plasma concentration higher than 3 IC50 (Score = 6)) | 23% | confirmed | 66% | 36.4701 and 62.0956 and 72.239 | – | –
3 | CNC(=O)N1C[C@@H](C)N(c2ccc(C(=O)Nc3ccc(-c4ccc(-c5c[nH]c([C@@H]6CCCN6C(=O)[C@@H](NC(=O)OC)C(C)C)n5)cc4)c(OC(F)(F)F)c3)cn2)C[C@@H]1C [TD-6450] | – | 3 | 3 (Peak plasma concentration between IC50 and 3 IC50 (Score = 3)) | 43% | confirmed | 27% | – | 280 ± 580 nM | ≥ 24 h
